Results published in patent US20240024403A1, “Compositions and Methods for Managing Weight” (Unigen, Inc., priority 2012, published 2024).
“Also recorded” adds a separate entry of the source.

Experiment: High fat diet induced obesity (DIO) mouse model
Format: in vivo, C57CL/6J mice
Set-up: NSAH (sum) [NASH score]: scale not given here
Conditions: for Total Body Weight / Body Weight: in g (unit assumed)
Description: C57CL/6J mice aged 4-6 weeks (Korea Research Institute of Bioscience & Biotechnology, Ohchang, Korea) were housed in Polycarbonate cages (five mice per cage) in a room with a 12 hr:12 hr light-dark cycle and an ambient temperature of 24° C. All the mice were fed a commercial chow diet for 1 week after arrival in the animal facility. Mice were then divided into normal and obesity groups and fed with normal diet (ND) and high fat diets (HFD) respectively. The HFD group was divided into multiple treatment groups: a high fat diet vehicle group (HFD), an orlistat (purchased as OTC drug Alli®) positive control treatment group (ORI, 40 mg/kg of animal weight, 2 times/day) and optionally a sibutramine positive control treatment group (10 mg/kg, 1 time/day). The HFD contained 340 g of fat/kg of HFD (310 g lard plus 30 g soybean oil; Harlan Laboratories, USA). The HFD was formulated to provide 60% of the total energy generated by the diet from fat by replacing carbohydrate energy with lard and soybean oil, whereas the normal diet (ND) group was fed a diet providing only 18% of the total diet energy from fat(Harlan Laboratories, USA).
Body weight was measured once each week and feed intake was measured twice per week. At the end of the experimental period, following a 12 hr. fasting period, the animals were anesthetized with ether, and blood was drawn from the abdominal vein. Liver and kidney and adipose tissues (epididymal, retroperitoneal, perirenal adipose tissues) were removed from each animal, rinsed with physiological saline, and weighed. Serum concentrations of glucose, total cholesterol, triglycerides, and LDL-cholesterol were determined using automatic analyzer (INTEGRA 400, Roche, Germany). Statistical significance of test results was measured using the Student's t-test.

[1] = mice fed a high fat diet, Mutamba fractions 250 mg/kg oral 2 times per day, mean
[2] = orlistat 40 mg/Kg/day oral, 8 weeks
[3] = orlistat 40 mg/kg oral, 7 weeks
[4] = orlistat 40 mg/kg, 2 times/day, listed as orlistat
[5] = score 0-3, orlistat 40 mg/kg oral
[6] = week 1, DIO mice, oral twice daily, mg/kg/day: ORI 40, Combo (Composition 1A) 800, Magnolia 100, Yerba Mate 500, Morus 200
[7] = week 1, DIO mice, combination (5:1) 1200 mg/kg twice a day by gavage, group mean
[8] = week 1, mice fed a high fat diet, Mutamba fractions 250 mg/kg oral 2 times per day, mean
[9] = week 2, DIO mice, oral twice daily, mg/kg/day: ORI 40, Combo (Composition 1A) 800, Magnolia 100, Yerba Mate 500, Morus 200
[10] = week 2, DIO mice, combination (5:1) 1200 mg/kg twice a day by gavage, group mean
[11] = week 2, mice fed a high fat diet, Mutamba fractions 250 mg/kg oral 2 times per day, mean
[12] = week 3, DIO mice, oral twice daily, mg/kg/day: ORI 40, Combo (Composition 1A) 800, Magnolia 100, Yerba Mate 500, Morus 200

With `CCCCCCCCCCC[C@@H](C[C@@H]1OC(=O)[C@H]1CCCCCC)OC(=O)[C@H](CC(C)C)NC=O` [ORI, orlistat] the “FER (Food efficiency ratio)” value (mice fed a high fat diet, FER = body weight gain (g/day)/food intake (g/day), Mutamba fractions 250 mg/kg oral 2 times per day, mean) was 0.034, the Body Weight Gain [1] was 0.093 g/day and the Food Intake [1] was 2.769 g/day. For the same compound, the Absolute Organ Weight: Epididymal Fat [2] was 2.03 g, the Absolute Organ Weight: Liver [2] was 1.19 g and the Absolute Organ Weight: PeriRenal Fat [2] was 0.29 g. The Absolute Organ Weight: Retroperitoneal Fat [2] was 0.5 g, the Absolute Organ Weight: Total Fat (sum of three fat pads) [2] was 2.82 g and the “Food Efficiency Ratio (FER)” value [2] was −0.001. The “Food Intake (average)” value [2] was 3.147 g/day, the “Relative Organ Weight: Epididymal Fat” value [2] was 0.05 and the “Relative Organ Weight: Liver” value [2] was 0.03. The “Relative Organ Weight: PeriRenal Fat” value [2] was 0.01, the “Relative Organ Weight: Retroperitoneal Fat” value [2] was 0.01 and the “Relative Organ Weight: Total Fat” value [2] was 0.07. For the same compound, the “Weight Gain (average)” value [2] was -0.004 g/day, the “Food Efficiency Ratio (FER)” value [3] was 0.000 and the “Food Intake (average per day)” value [3] was 3.195 g/day. The “Weight Gain (average per day)” value [3] was 0.000 g/day, the “blood biochemistry parameters vs HFD group” value (orlistat 40 mg/kg, 2 times/day) was “statistically significant decrease in LDL-cholesterol; also recorded: statistically significant decreases in total cholesterol, LDL-cholesterol, and fasting glucose; also recorded: statistically significant decreases in ALT and LDL-cholesterol; also recorded: statistically significant decrease in ALT” and the “body weight gain vs HFD group” value (orlistat 40 mg/kg, 2 times/day) was “greatest change in weight gain between week 2 and week 3; also recorded: statistically significant decreases in body weight gains each week after the first week of treatment; also recorded: statistically significant decreases in body weight gain across all weeks of the study; also recorded: statistically significant decreases in body weight gain from week 1 through to week 7; also recorded: statistically significant decreases in weight gain from week 1 through to week 8”. For the same compound, the “body weight gain vs HFD group” value [4] was “significant reduction in body weight gain at 7 weeks”, the “weight gain per day, food intake per day, food efficiency ratio (FER) vs HFD group” value [4] was “significantly reduced FER” and the “Liver pathology: Hepatocellular ballooning (0-2)” value (score 0-2, orlistat 40 mg/kg oral) was 0.67. The “Liver pathology: Lobular Inflammation (0-3)” value [5] was 1.33, the “Liver pathology: Steatosis (0-3)” value [5] was 0.67 and the “NSAH (sum) [NASH score]” value (sum of scores, orlistat 40 mg/kg oral) was 2.67. The “Total Body Weight” value (week 0, DIO mice, oral twice daily, mg/kg/day: ORI 40, Combo (Composition 1A) 800, Magnolia 100, Yerba Mate 500, Morus 200) was 40.22, the “Total Body Weight” value (week 0, DIO mice, combination (5:1) 1200 mg/kg twice a day by gavage, group mean) was 38.40 and the “Total Body Weight” value (week 0, ORI 40 mg/kg, DIO mice (Table 52)) was 39.96. For the same compound, the “Total Body Weight” value (week 0, ORI 40 mg/kg, DIO mice) was 42.76, the “Body Weight” value (week 0, mice fed a high fat diet, Mutamba fractions 250 mg/kg oral 2 times per day, mean) was 39.76 and the “Weight Gain” value [6] was −2.24. The “Total Body Weight” value [6] was 37.98, the “Body Weight Gain” value (week 1, DIO mice, SIB 10 mg/kg, ORI 40 mg/kg, Mutamba extract 32 (G1) 1000 mg/kg/day oral, mean) was −2.59 and the “Body Weight Gain” value (week 1, DIO mice, SIB 10 mg/kg, ORI 40 mg/kg, Mutamba extract 33-2 G1 1000 mg/kg, mean) was −3.05. For the same compound, the “Weight Gain” value (week 1, DIO mice, combination (1:1) 2000 mg/kg twice a day, group mean) was −3.20, the “Weight Gain” value [7] was −3.20 and the “Total Body Weight” value [7] was 35.20. The “Total Body Weight” value (week 1, ORI 40 mg/kg, DIO mice (Table 52)) was 37.37, the “Total Body Weight” value (week 1, ORI 40 mg/kg, DIO mice) was 38.73 and the “Body Weight Gain” value (week 1, ORI 40 mg/kg, mice fed high fat diet) was −4.00. For the same compound, the “Body Weight Gain” value [8] was −3.05, the “Body Weight” value [8] was 36.71 and the “Weight Gain” value (week 1, orlistat 40 mg/kg oral) was −5.43. For the same compound, the “Weight Gain” value [9] was −6.14, the “Total Body Weight” value [9] was 34.08 and the “Body Weight Gain” value (week 2, DIO mice, SIB 10 mg/kg, ORI 40 mg/kg, Mutamba extract 32 (G1) 1000 mg/kg/day oral, mean) was −2.90. The “Body Weight Gain” value (week 2, DIO mice, SIB 10 mg/kg, ORI 40 mg/kg, Mutamba extract 33-2 G1 1000 mg/kg, mean) was −2.81, the “Weight Gain” value (week 2, DIO mice, combination (1:1) 2000 mg/kg twice a day, group mean) was −4.88 and the “Weight Gain” value [10] was −4.88. The “Total Body Weight” value [10] was 33.58, the “Total Body Weight” value (week 2, ORI 40 mg/kg, DIO mice (Table 52)) was 37.05 and the “Total Body Weight” value (week 2, ORI 40 mg/kg, DIO mice) was 35.09. The “Body Weight Gain” value (week 2, ORI 40 mg/kg, mice fed high fat diet) was −7.38, the “Body Weight Gain” value [11] was −2.81 and the “Body Weight” value [11] was 36.95. For the same compound, the “Weight Gain” value (week 2, orlistat 40 mg/kg oral) was −6.69, the “Weight Gain” value [12] was −4.91 and the “Total Body Weight” value [12] was 35.32. The “Body Weight Gain” value (week 3, DIO mice, SIB 10 mg/kg, ORI 40 mg/kg, Mutamba extract 32 (G1) 1000 mg/kg/day oral, mean) was −2.55, the “Body Weight Gain” value (week 3, DIO mice, SIB 10 mg/kg, ORI 40 mg/kg, Mutamba extract 33-2 G1 1000 mg/kg, mean) was −2.63 and the “Weight Gain” value (week 3, DIO mice, combination (1:1) 2000 mg/kg twice a day, group mean) was −3.34. For the same compound, the “Weight Gain” value (week 3, DIO mice, combination (5:1) 1200 mg/kg twice a day by gavage, group mean) was −3.34.
